Non-standard residues stand in square brackets, D forms with d. Primed or numbered codes have the meaning given here. No end group written: not given here. *: point of attachment. Phe(4-F) = N[C@@H](Cc1ccc(F)cc1)C(=O)O; 2Nal = N[C@@H](Cc1ccc2ccccc2c1)C(=O)O; Arg(Me) = CNC(=N)NCCC[C@H](N)C(=O)O; dNMeY = CN[C@H](Cc1ccc(O)cc1)C(=O)O; Tic = O=C(O)[C@@H]1Cc2ccccc2CN1; 2Thi = N[C@@H](Cc1cccs1)C(=O)O; Cha = N[C@@H](CC1CCCCC1)C(=O)O; pGlu = O=C1CC[C@@H](C(=O)O)N1; Adipoyl′ = not defined here; Orn = NCCC[C@H](N)C(=O)O; Hexanoyl = CCCCCC(=O)*; Propionyl = CCC(=O)*; azaGly = NNC(=O)O; For = O=C*
Key:
[1] = Blood testosterone level decreasing effect in mature male rat (0.1 mM peptide solution); assay type: in vivo
Protocol: This peptide solution was filled in 5 ALZET osmotic pumps (Model 2001, 0.2 ml in volume, release rate: 0.001 ml/hr, DURECT Corporation). The ALZET pumps filled with the peptide solution were implanted subcutaneously in 5 CD(SD)IGS male rats of 9 weeks old after birth (Charles River Japan, Inc.) on the back under ether anesthesia by one pump for one animal. For negative control, distilled water (Otsuka Pharmaceutical Co., Ltd.) was filled in 5 ALZET osmotic pumps, which were similarly implanted in 5 male CD(SD)IGS rats (Charles River Japan, Inc.), respectively. These pump-implanted rats were fed for 6 days under normal feeding conditions. After weighing, the animal was decapitated to collect blood. After 0.03 ml/ml blood of aprotinin solution (Trasylol, Bayer) containing 0.1 mg/ml EDTA.2Na was added to blood, the mixture was centrifuged at 1,800 G for 25 minutes to isolate/recover plasma. From the plasma obtained, 0.05 ml was applied to radioimmunoassay (DPC.Total Testosterone Kit, Diagnostic Products Corporation) to measure the plasma testosterone level of each rat. The value below the limit of measurement (0.04 ng/ml of plasma level) in radioimmunoassay was treated as 0. A mean value of the testosterone levels from 5 rats receiving the peptide was calculated and a relative value (percent) of the mean value to a mean value from 5 rats receiving distilled water.
In a manner similar to TEST EXAMPLE 14, evaluation was made using 0.1 mM peptide solution and a part of the results obtained are shown in TABLE 30.

[2] = target: T1, hOT7T175 (Homo sapiens, UniProt Q969F8, L364H); assay type: cell-based; conditions: hOT7T175/CHO, FLIPR, evaluation for 40 seconds after initiation of the reaction
T1 construct: expressed in transfected cells
T1 sequence (Q969F8 whole entry L364H): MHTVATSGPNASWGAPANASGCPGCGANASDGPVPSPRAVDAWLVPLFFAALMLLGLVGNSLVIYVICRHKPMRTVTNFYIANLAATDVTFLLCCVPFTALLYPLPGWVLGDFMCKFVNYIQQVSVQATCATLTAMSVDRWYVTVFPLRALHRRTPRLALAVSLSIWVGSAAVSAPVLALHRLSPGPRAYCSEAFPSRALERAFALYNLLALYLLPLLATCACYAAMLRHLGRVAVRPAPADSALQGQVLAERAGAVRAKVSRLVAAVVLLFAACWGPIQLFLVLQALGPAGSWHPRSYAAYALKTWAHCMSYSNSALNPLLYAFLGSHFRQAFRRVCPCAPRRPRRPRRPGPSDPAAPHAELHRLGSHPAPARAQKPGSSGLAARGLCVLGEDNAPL
Protocol: The intracellular Ca ion level-increasing activity was measured using FLIPR as in TEST EXAMPLE 2.

[3] = Action of reducing testosterone level in blood in mature male rat (1 mM peptide in 50% DMSO, ALZET osmotic pump); assay type: in vivo; conditions: 1 mM peptide in 50% DMSO aqueous solution, ALZET osmotic pump s.c., six days
Protocol: The peptide was encapsulated in five ALZET osmotic pump (Model 2001, 0.2 ml of volume, releasing rate 0.001 ml/hr, DURECT Corporation). The ALZET pumps encapsulated with the peptide solution were implanted to dorsal subcutaneous of five male CD (SD) IGS rat at nine weeks age (Charles River Japan, Inc.) anesthesized with ether for one pump to one rat. Separately, for negative controls, the ALZET osmotic pumps encapsulated with distilled water were implanted to five male CD (SD) IGS rat (Charles River Japan, Inc.) The rats were bred for six days under the normal conditions. After weighing, blood was collected by decapitation. To 1 ml of blood, 0.03 ml of aprotinin (Trasylol, Byer) solution containing 0.1 g/ml EDTA 2Na was added. The plasma was isolated by centrifugation at 1,800×g for 25 minutes and collected. The thus obtained plasma, 0.05 ml was effected by radioimmunoassay. (DPC Total Testosterone Kit, Diagnostic Products Corporation) to measure testosterone level in blood of each rat. The value beneath measuring limit of radioimmunoassay (0.04 ng/ml as concentration of plasma) was treated as zero. The mean values for testosterone level of five rats, to which the peptide was given, was calculated and the relative value (percentage) for the mean values of testosterone level of five rats, to which distilled watrer was given, was estimated.

[4] = target: T2, hOT7T175 (Homo sapiens, UniProt Q969F8); assay: Intracellular Ca ion level-increasing activity using FLIPR (180 seconds; specific activity to Metastin (1-54)); assay type: cell-based; conditions: hOT7T175/CHO, change in intracellular calcium ion level for 180 seconds, Tables 21-23
T2 construct: expressed in transfected cells
T2 sequence (Q969F8 whole entry L364H): as above

Substance | Teststerone level in Blood [1] | Specific Act. (EC50/MS10 EC50) [2] | Testosterone level in Blood [3] | intracellular Ca ion level-increasing activity [specific activity to Metastin (1-54)] [4]
3-(4-Hydroxyphenyl)propionyl-D-Trp-Asn-Thr-Phe-AzaGly-Leu-Arg(Me)-Trp-NH2 [Compound No. 559] | 17% | 0.3 | – | –
Ac-D-Arg-Acp-D-Tyr-D-Trp-Asn-Thr-Phe-AzaGly-Leu-Arg(Me)-Trp-NH2 [Compound No. 551] | 8% | 1.2 | – | –
Ac-D-Tyr-D-Pya(4)-Asn-Ser-Phe-AzaGly-Leu-Arg(Me)-Phe-NH2 [Compound No. 516] | 3% | 3.7 | – | –
Ac-D-Tyr-D-Pya(4)-Asn-Thr-Phe-AzaGly-Leu-Arg(Me)-Trp-NH2 [Compound No. 562] | 11% | 1.0 | – | –
Ac-[dA][dW]NTF[azaGly]L[Arg(Me)]W-NH2 [Compound No. 616] | – | 1.1 | 2% | –
Ac-[dF][dW]NTF[azaGly]L[Arg(Me)]W-NH2 [Compound No. 618] | – | 1.6 | 2% | –
Ac-[dK][dW]NTF[azaGly]L[Arg(Me)]W-NH2 [Compound No. 621] | – | 1.9 | 2% | –
Ac-[dL][dW]NTF[azaGly]L[Arg(Me)]W-NH2 [Compound No. 617] | – | 2.4 | 2% | –
Ac-[dNMeY][dW]NTF[azaGly]L[Arg(Me)]W-NH2 [Compound No. 602] | – | 2.4 | 2% | –
Ac-[dY]WNTF[azaGly]L[Arg(Me)]W-NH2 [Compound No. 623] | – | 0.6 | 2% | –
Ac-[dY][Tic]NTF[azaGly]L[Arg(Me)]W-NH2 [Compound No. 662] | – | 0.7 | 2% | –
Ac-[dY][dA]NTF[azaGly]L[Arg(Me)]W-NH2 [Compound No. 625] | – | 2.8 | 2% | –
Ac-[dY][dE]NTF[azaGly]L[Arg(Me)]W-NH2 [Compound No. 630] | – | 4.2 | 2% | –
Ac-[dY][dF]NTF[azaGly]L[Arg(Me)]W-NH2 [Compound No. 627] | – | 1.6 | 2% | –
Ac-[dY][dK]NTF[azaGly]L[Arg(Me)]W-NH2 [Compound No. 629] | – | 3.4 | 2% | –
Ac-[dY][dL]NTF[azaGly]L[Arg(Me)]W-NH2 [Compound No. 626] | – | 2.1 | 2% | –
Ac-[dY][dW]NSF[azaGly]L[Arg(Me)]W-NH2 [Compound No. 558] | 2% | 0.4 | – | –
Ac-[dY][dW]NTFGL[Arg(Me)]W-NH2 [Compound No. 598] | – | 0.3 | 2% | –
Ac-[dY][dW]NTF[azaGly]LRW-NH2 [Compound No. 600] | – | 0.3 | 2% | –

Substance | Teststerone level in Blood [1] | Specific Act. (EC50/MS10 EC50) [2] | Testosterone level in Blood [3] | intracellular Ca ion level-increasing activity [specific activity to Metastin (1-54)] [4]
Ac-[dY][dW]NTF[azaGly]L[Arg(Me)]Y-NH2 [Compound No. 591] | – | 1.2 | 2% | –
Ac-[dY][dW]NTF[azaGly]L[Arg(Me)][2Nal]-NH2 [Compound No. 589] | – | 2.3 | 2% | –
Ac-[dY][dW]NTF[azaGly]L[Arg(Me)][2Thi]-NH2 [Compound No. 590] | – | 1.4 | 2% | –
Ac-[dY][dW]NTF[azaGly]L[Arg(Me)][Cha]-NH2 [Compound No. 595] | – | 11.4 | 3% | –
Ac-[dY][dW]NTF[azaGly]L[Arg(Me)][Phe(4-F)]-NH2 [Compound No. 592] | – | 1.1 | 2% | –
Ac-[dY][dW]NTF[azaGly]L[Orn]W-NH2 [Compound No. 599] | – | 0.5 | 2% | –
Ac-[dY][dW]NTF[azaGly]V[Arg(Me)]W-NH2 [Compound No. 642] | – | 3.7 | 2% | –
Ac-[dY][dW]NT[Phe(4-F)][azaGly]L[Arg(Me)]W-NH2 [Compound No. 637] | – | 0.8 | 2% | –
Adipoyl-D-Trp-Asn-Thr-Phe-AzaGly-Leu-Arg(Me)-Trp-NH2 ({Adipoyl′}-[dW]NTF[azaGly]L[Arg(Me)]W-NH2) [Compound No. 671] | – | 3.6 | 2% | –
D-Tyr-D-Pya(4)-Asn-Ser-Phe-AzaGly-Leu-Arg(Me)-PheΨ(CSNH)NH2 [Compound No. 548] | – | 1.7 | 18% | –
D-Tyr-D-Pya(4)-Asn-Thr-Phe-AzaGly-Leu-Arg(Me)-Trp-NH2 [Compound No. 501] | – | 1.1 | 2% | 10
D-Tyr-D-Tyr-D-Trp-Asn-Thr-Phe-AzaGly-Leu-Arg(Me)-Trp-NH2 ([dY][dY][dW]NTF[azaGly]L[Arg(Me)]W-NH2; N-terminus assumed; SMILES CNC(=N)NCCC[C@H](NC(=O)[C@H](CC(C)C)NC(=O)NNC(=O)[C@H](Cc1ccccc1)NC(=O)[C@@H](NC(=O)[C@H](CC(N)=O)NC(=O)[C@@H](Cc1c[nH]c2ccccc12)NC(=O)[C@@H](Cc1ccc(O)cc1)NC(=O)[C@H](N)Cc1ccc(O)cc1)[C@@H](C)O)C(=O)N[C@@H](Cc1c[nH]c2ccccc12)C(N)=O) [Compound No. 650] | – | 0.6 | 2% | –
For-[dY][dW]NTF[azaGly]L[Arg(Me)]W-NH2 [Compound No. 612] | – | 0.8 | 2% | –
G[dY][dW]NTF[azaGly]L[Arg(Me)]W-NH2 [Compound No. 648] | – | 1.6 | 2% | –
Hexanoyl-D-Trp-Asn-Thr-Phe-AzaGly-Leu-Arg(Me)-Trp-NH2 (Hexanoyl-[dW]NTF[azaGly]L[Arg(Me)]W-NH2; SMILES CCCCCC(=O)N[C@H](Cc1c[nH]c2ccccc12)C(=O)N[C@@H](CC(N)=O)C(=O)N[C@H](C(=O)N[C@@H](Cc1ccccc1)C(=O)NNC(=O)N[C@@H](CC(C)C)C(=O)N[C@@H](CCCNC(=N)NC)C(=O)N[C@@H](Cc1c[nH]c2ccccc12)C(N)=O)[C@@H](C)O) [Compound No. 667] | – | 1.4 | 2% | –
Propionyl-[dY][dW]NTF[azaGly]L[Arg(Me)]W-NH2 [Compound No. 613] | – | 0.4 | 2% | –
Tyr-D-Tyr-D-Trp-Asn-Thr-Phe-AzaGly-Leu-Arg(Me)-Trp-NH2 (Y[dY][dW]NTF[azaGly]L[Arg(Me)]W-NH2; N-terminus assumed; SMILES CNC(=N)NCCC[C@H](NC(=O)[C@H](CC(C)C)NC(=O)NNC(=O)[C@H](Cc1ccccc1)NC(=O)[C@@H](NC(=O)[C@H](CC(N)=O)NC(=O)[C@@H](Cc1c[nH]c2ccccc12)NC(=O)[C@@H](Cc1ccc(O)cc1)NC(=O)[C@@H](N)Cc1ccc(O)cc1)[C@@H](C)O)C(=O)N[C@@H](Cc1c[nH]c2ccccc12)C(N)=O) [Compound No. 675] | – | 0.8 | 2% | –
pGlu-D-Tyr-D-Trp-Asn-Thr-Phe-AzaGly-Leu-Arg(Me)-Trp-NH2 ([pGlu][dY][dW]NTF[azaGly]L[Arg(Me)]W-NH2; SMILES CNC(=N)NCCC[C@H](NC(=O)[C@H](CC(C)C)NC(=O)NNC(=O)[C@H](Cc1ccccc1)NC(=O)[C@@H](NC(=O)[C@H](CC(N)=O)NC(=O)[C@@H](Cc1c[nH]c2ccccc12)NC(=O)[C@@H](Cc1ccc(O)cc1)NC(=O)[C@@H]1CCC(=O)N1)[C@@H](C)O)C(=O)N[C@@H](Cc1c[nH]c2ccccc12)C(N)=O) [Compound No. 652] | – | 0.9 | 2% | –

Source: US8778871B2 (Takeda Pharmaceutical Company Limited, priority 2004, dated 2014)
